Data from patent publication US20250073209A1, “COVALENT TARGETING OF RhoA FOR CANCER THERAPY” (The University of Hong Kong, priority 2023, published 2025).

Tests used:
RhoA [1] = target: T1, RhoA (Homo sapiens, UniProt P61586); assay: Fluorescence assay of MANT-GTP binding onto RhoA; assay type: biochemical; conditions: pre-incubation of RhoA with CL16
Procedure: FIGS. 10A and 10B are graphs showing GTP binding assay of RhoA (0.75 μg) with CL16 (FIG. 10A) and GTP-MANT (5.6 μM) (FIG. 10B) in the buffer solution (20 mM Tris, 50 mM NaCl, 10 mM MgCl2, pH 7.5).

HT29 xenograft = assay: Mouse HT29 xenograft model; assay type: in vivo
Procedure: FIG. 7A is a graph showing inhibition of tumor growth by CL16 in mouse HCT116 xenografts through intraperitoneal injection at 10 mg/kg (n=6 per group). FIG. 7B is a graph showing inhibition of tumor growth by CL16 in mouse HT29 xenografts through intraperitoneal injection at 10 mg/kg (n=7). FIG. 7C is a graph showing the body weight of mice with HT29 xenografts throughout the treatment with CL16. FIG. 7D is a graph showing inhibition of tumor growth by CL16 in mouse SW620 xenografts through intraperitoneal injection at 10 mg/kg (n=6 per group). FIG. 7E is a bar graph showing the tumor weight of harvested tumors from the treated mice with SW620 xenografts. FIG. 7F is a graph showing the body weight of mice with SW620 xenografts throughout the treatment with CL16. Statistical analysis using a two-tailed Student's t-test. *P<0.05.
7-week-old mice with weight around 20 g were inoculated subcutaneously with HCT116 (2×10^6 cells per mouse) or HT29 (3×10^6 cells per mouse) cells, in serum-free RMPI or Matrigel in PBS respectively. […] The tumor volume and body weight of the nude mice were measured throughout the treatment. The tumor volume was calculated by the equation: Volume (mm^3)=1×w^2/2, where 1 and w were the length and width of the tumor. At the end of the treatment, the mice were sacrificed and the tumor weight was measured. […]

HCT116 cells = assay: F-actin staining (Alexa Fluor 488-Phalloidin), serum re-stimulation; assay type: cell-based, human; conditions: HCT116, 24 h, 10% FBS re-stimulation 10 min
Procedure: To further validate the inhibitory effects of CL16 on RhoA, HCT116 and HT29 cells were transfected with a FRET-RhoA biosensor, where cells with elevated RhoA activity would show a higher FRET/mTFP1. Specifically, HCT116 cells transfected with FRET-RhoA biosensor were treated with CL16 or solvent in serum-free medium for 24 h, washed with PBS, re-stimulated with 10% FBS for 10 min, washed, and then imaged in HBSS by confocal fluorescence microscopy. […] In addition, HCT116 cells were serum-starved and treated with CL16 or Rhosin for 24 h, followed by 10% FBS re-stimulation for 10 min. The cells were then washed and fixed by 4% paraformaldehyde, washed with PBS and stained with Alexa Fluor 488-Phalloidin in PBS (1:20, v/v) at room temperature for 15 min. The cells were washed with PBS, incubated with Hoechst (8.2 μM) in PBS for 15 min, washed and then imaged in PBS by confocal fluorescence microscopy. […] Since RhoA regulates cytoskeletal dynamics and RhoA activation can induce the formation of contractile F-actin, the reduction of F-actin fibers by CL16 treatment supports its inhibitory roles on RhoA signaling.

HT29 spheroid = assay: Spheroid formation assay, HT29; assay type: cell-based, human
Procedure: FIGS. 5A-5B are graphs showing the anticancer effects of CL16 in HT29 (FIG. 5A) and SW620 (FIG. 5B) spheroids. HT29 spheroid or SW620 spheroid were treated with CL16 at the indicated concentrations for 10 days. The spheroids were then imaged by microscope using 10× objective and the size was determined by ImageJ.
5,000 cells of HT29 and SW620 cells were inoculated in serum-free DMEM/F12 medium with 20 ng/mL […] growth factor (EGF) in 96-well round-bottom low-affinity plate (Nunc). Medium was supplemented with CL16 or Rhosin when spheroid has formed an opaque core. Morphology was recorded under a light microscope with 10× objective.
To further investigate the anticancer effects of CL16, HT29 and SW620 cells were inoculated as spheroids in low-affinity plate with 20 ng/mL EGF, and incubated with different concentrations of CL16 or Rhosin.

RhoA [2] = target: T1, RhoA; assay: Gel-based competitive ABPP (iodoacetamide-rhodamine) on purified RhoA; parameters: purchased ab101594; conditions: competition with IA-Rh, dose-dependent experiments; read-out: IC50 of the competitive binding / in vitro RhoA binding
Procedure: Recombinant human RhoA (0.1 μg; ab101594) was pretreated with cysteine-reactive compounds or DMSO for 1 hour at room temperature, followed by incubation with iodoacetamide-rhodamine (IA-Rh; 1 μM) for 1 hour at room temperature. The reaction was then quenched by boiling in sampling buffer. Samples were subjected to SDS-PAGE to separate proteins bands. In-gel fluorescence intensity was measured with a Chemidoc using setting for Rhodamine. Gel was subsequently stained with silver stain (Pierce) for visualization of protein content and covalent modification. Band intensity was quantified using ImageJ.
CL16 was identified for its strong and specific binding with RhoA in covalent ligand screening experiment by ABPP. ABPP is known as a powerful platform for covalent ligand screening, particularly for the identification of lead compounds targeting new hotspots for therapy. Competitive gel-based activity-based protein profiling (ABPP) experiment was performed on purified RhoA protein for screening its interactions with a library of cysteine-reactive covalent ligands with acrylamide or chloroacetamide warheads. RhoA protein for the first screening and on Rac1 and Cdc42 for the second screening to identify lead compounds with specific binding onto RhoA Cys16. […] The reaction mixture was then resolved by SDS-PAGE and in-gel fluorescence was imaged (FIG. 1A). […]

T1 sequence (P61586 whole entry): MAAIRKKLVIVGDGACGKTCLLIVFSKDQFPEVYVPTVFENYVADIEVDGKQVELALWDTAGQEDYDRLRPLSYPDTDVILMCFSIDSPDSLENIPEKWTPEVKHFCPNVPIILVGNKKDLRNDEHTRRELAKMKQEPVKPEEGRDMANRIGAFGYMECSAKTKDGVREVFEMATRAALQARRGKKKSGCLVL

**Q.** What does the source list for `O=C(CCl)N1N=C(c2cc3ccccc3o2)CC1c1ccco1` (stereo not shown) [CL16]?
**A.** MANT-GTP binding onto RhoA (increase in fluorescence intensity) (RhoA [1]): significantly slowed down the increase in fluorescence intensity; body weight, treated vs untreated (HT29 xenograft; HT29 xenografts, FIG. 7C): no observable difference; tumor growth vs vehicle control (HT29 xenograft; nude mice, 10 mg/kg intraperitoneal): significantly inhibited tumor growth; concentration from which reduction of F-actin fibers was observed (HCT116 cells): ≥ 5 µM; growth of HT29 spheroids (HT29 spheroid; 20 ng/mL EGF, low-affinity plate): significant inhibitions in the growth; IC50 (HT29 spheroid; Homo sapiens, HT-29, 240 h, 10 days, read-out: cytotoxic IC50 in HT29 spheroids): 5.57 µM; IC50 (RhoA [2]): 0.44 µM
